Measurements reported in patent publication US4562292A, “Trifluoromethylketone sulfides and reversible enzyme inhibition therewith” (priority 1983, dated 1985).
Read-outs that look alike come from different tables or passages of the source.

Tests used:
[1] = molecular target: JH esterase; assay: JH esterase inhibition in T. ni hemolymph; type: biochemical, Trichoplusia ni; conditions: for IC50: diluted T. ni larval plasma, 10 min preincubation at 30° C., 5×10^-6 M JH III, read-out: I50 (M) JHE
Procedure: JH esterase activity was monitored in the hemolymph collected from last stadium day two larvae of the cabbage looper, Trichoplusia ni, Lepidoptera, Noctuidae. The plasma was diluted (v/v) in sodium phosphate buffer (pH 7.4, 0.08M with 0.01% [w/v] phenyulthiourea) and frozen at -60° C. until used. The inventive compounds were added in 1μ liter of ethanol to 100μ liters of the diluted plasma and preincubated for 10 min at 30° C. before adding substrate (ClO^3 H JH III New England Nuclear and unlabeled E, E JH III, Calbiochem) in 1μ liter of ethanol to give a final concentration of 5×10^-6 M JH III containing about 30,000 dpm/assay (Hammock and Sparks, Anal. Biochem. 82, 573 (1977).
(§1) In each case, at least three replicates of each inhibitor concentration were used. A minimum of two inhibitor concentrations showing greater and less than 50% inhibition were used to determine the I50 values from semilog plots except in the case of weaker inhibitors. Only those points on the apparently linear portion of the curve were used to calculate the I50 's.

[2] = system: α-NAE; assay: α-Naphtyl acetate (α-NA) hydrolysis in T. ni prepupal hemolymph; type: biochemical, Trichoplusia ni; conditions: hemolymph of T. ni prepupae, substrate 2.3×10^-4 M; read-out: I50 (M) α-NAE
Procedure: α-Naphtyl acetate (α-NA) hydrolysis was monitored similarly in the hemolymph of prepupae of T. ni (fifth stadium, day 4) with a final substrate of 2.3×10^-4 M. Plasma dilutions and incubation times were chosen to give a hydrolysis rate which was linear with time.
as §1

[3] = molecular target: T1, Type VI-S electric eel AChE (Electrophorus electricus, UniProt O42275); assay: acetylcholinesterase (AChE) activity; type: biochemical
T1 construct: purchased Sigma Type VI-S
T1 sequence (O42275 24-633): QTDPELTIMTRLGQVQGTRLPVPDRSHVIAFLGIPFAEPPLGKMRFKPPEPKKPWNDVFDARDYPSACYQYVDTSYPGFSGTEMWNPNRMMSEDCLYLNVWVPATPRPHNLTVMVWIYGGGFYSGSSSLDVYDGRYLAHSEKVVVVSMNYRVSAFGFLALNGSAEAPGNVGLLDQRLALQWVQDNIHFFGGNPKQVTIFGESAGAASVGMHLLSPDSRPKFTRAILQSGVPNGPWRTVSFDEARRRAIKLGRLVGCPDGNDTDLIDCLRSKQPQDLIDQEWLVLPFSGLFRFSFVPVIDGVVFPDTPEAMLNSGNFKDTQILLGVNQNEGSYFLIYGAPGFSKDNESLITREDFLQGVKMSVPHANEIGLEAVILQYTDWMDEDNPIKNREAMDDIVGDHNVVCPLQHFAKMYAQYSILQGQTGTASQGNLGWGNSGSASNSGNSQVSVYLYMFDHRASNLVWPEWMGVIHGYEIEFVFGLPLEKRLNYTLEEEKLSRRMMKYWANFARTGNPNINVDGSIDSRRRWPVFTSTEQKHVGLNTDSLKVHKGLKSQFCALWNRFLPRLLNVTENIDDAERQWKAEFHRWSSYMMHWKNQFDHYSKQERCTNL
Procedure: For acetylcholinesterase (AChE) activity, 20μ liters of acetylthiocholine iodide (Sigma) in sodium phosphate buffer (0.05M, ph 7.2) was added to Type VI-S electric eel AChE (Sigma, 10 ng with 2-400 units/mg protein) in 3 ml the same buffer to give a final substrate concentration of 5×10^-4 M. The assay was run at 37° C.
(§2) For AChE, trypsin and α-ChT, the inhibitor was added to ethanol 10 min prior to the substrate and preincubated at the same temperature used for the actual assay. In no case was greater than 1% v/v ethanol added, and ethanol controls were always run. For the spectrophotometric enzyme assays, initial studies were run on a Varian-Cary 219 UV/visible spectrophotometer, while subsequent assays were run on a Gilford manual EIA reading using disposable cuvettes.
as §1

[4] = molecular target: T2, bovine pancreatic type III trypsin (Bos taurus, UniProt P00760); assay: trypsin activity; type: biochemical
T2 construct: purchased Sigma type III
T2 sequence (P00760 24-246): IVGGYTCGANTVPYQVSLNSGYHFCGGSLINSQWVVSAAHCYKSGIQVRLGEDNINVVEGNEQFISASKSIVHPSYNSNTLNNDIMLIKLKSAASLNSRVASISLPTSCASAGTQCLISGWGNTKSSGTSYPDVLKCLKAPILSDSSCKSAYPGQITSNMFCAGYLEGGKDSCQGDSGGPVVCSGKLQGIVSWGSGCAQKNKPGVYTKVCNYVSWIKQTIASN
Procedure: For trypsin, 1.5 ml of p-toluenesulfonyl-L-arginine methyl ester (Sigma) in Tris HCl buffer (pH 8.1, 0.04M with 0.1M CaCl2) was added to 1.5 ml of the same buffer containing bovine pancreatic type III trypsin (Sigma, 0.24 μg) to give a final substrate concentration of 1×10^-4 M. The assay was performed at 25° C.
as §2, §1

[5] = system: T. ni larvae; assay: topical treatment of T. ni larvae, time of pupation; type: in vivo, Trichoplusia ni; conditions: for delay of pupation versus ethanol controls: 0.1 and 0.2μ mole per application, 3 times per day, L5D1 and D2, topical; for delay of pupation: topical
Procedure: (§3) T. ni larvae are treated with 1 or 2μ liters of ethanol, with TFPOS, wit o-ethyl-S-phenyl phosphoramidothiolate (EPPAT), or with 1,1,1-trifluorotetradecan-2-one (TFT) in 1×10^-1 M ethanol solutions on the dorsum of the thorax three times per day (4, 12 and 17 hr after lights on) during the first two days of the last larval stadium. The insects were held under standard rearing conditions (27° C., 14 hr light, 10 hr dark). The time of pupation was checked daily at 4 hr after lights on and the pupae were checked for successful emergence two weeks later.
(§4) Larvae were treated on the dorsum of the thorax with 1 or 2μ liters of ethanol (control) and with 1 or 2μ liters, respectively, of 10^-1 M TFT, TFPOS, DTFT or EPPAT in ethanol, 3 times per day at 4, 12 and 17 h ALO (after lights on) on L5Dl and D2. Time of pupation was checked daily at 4 h ALO, and emergence was checked 2 weeks after treatment. L5Dl larvae 4 h ALO were also treated, but only once with 1μ liter ethanol or with 1μ liter of 10-1 M TFT, TFPOS, or EPPAT in ethanol, and then were bled at 1, 8, 12, 23, 28, or 32 h after treatment. Hemolymph was collected from five larvae, mixed and frozen at -60° C. until assayed for JHE and α-NAE activity. […] Death usually occured during the larval-pupal transformation, with the control mortality at 2μ liters of ethanol being 1%, TFT at 0.2M being 6%, an TFPOS being 4%.

[6] = system: T. ni larvae; assay: mortality of T. ni larvae after repeated topical applications; type: in vivo, Trichoplusia ni
Procedure: as §3, §4

[7] = system: T. ni JHE; assay: in vivo inhibition of T. ni JHE after topical application; design: species or system Trichoplusia ni; conditions: for maximum percent inhibition obtainable after treatment / selectivity for JHE in vivo: compared with EPPAT
Procedure: as §4
In another study, the in vivo inhibition of T. ni JHE following a single dose (0.1μ moles/larve) of EPPAT and TFPOS respectively was monitored. Maximum inhibition of T. ni JHE was obtained one hour after topical application for each.

[8] = system: T. ni JHE; assay: removal of inhibitor by dialysis (reversibility of inhibition); type: biochemical, Trichoplusia ni
[9] = system: clofibrate esterase; assay: hydrolysis of clofibrate by microsomal protein; type: biochemical, human
Excerpt: The drug clofibrate (α-[4-chlorophenoxy)-α-methylpropionate; Atromid-S) is one of a class of compounds given to heart patients as a hypolipidemic agent.

[10] = acetylthiocholine iodide 5×10^-4 M, 37° C., * = greater than, read-out: I50 (M) AChE
[11] = p-toluenesulfonyl-L-arginine methyl ester 1×10^-4 M, 25° C., read-out: I50 (M) Trypsin (*greater than)

Compound	IC50 [2] [M]	IC50 [3, 10] [M]	IC50 [4, 11] [M]	IC50 [1] [M]	other results
CCCCCCCCSCC(=O)C(F)(F)F [Compound 1, 1,1,1-Trifluoro-3-thioocytylpropan-2-one]	1.2e-06	2.3e-06	> 1e-05		inhibition I50 value, juvenile hormone esterases ([1]; in words): nanomolar range; times more active in vitro for juvenile hormone esterase than TFT ([1]; versus TFT): over 40 times; delay of pupation versus ethanol controls ([5]; listed as TFPOS): pupation was delayed with respect to the controls in a dose-dependent manner; delay of pupation ([5]; 0.2μ moles/application): more dramatic; in vivo activity ([5]; in vivo): pronounced in vivo activity; delay of pupation ([5]; repeated doses of 0.1μ moles, first two days of last larval stadium): effective in delaying the pupation; mortality at 0.2 µmol/application ([6]; Trichoplusia, topical, repeated applications of 2μ liters (0.2 moles/application), Example VIII): 4%; mortality ([6]; repeated 1μ liter applications of 1×10^-1 M solution): No mortality; maximum percent inhibition obtainable after treatment [7]: as effective; selectivity for JHE in vivo [7]: more selective for JHE in vivo than EPPAT; time of maximum inhibition of T. ni JHE after topical application ([7]; single dose 0.1μ moles/larve): one; enzyme activity after dialysis ([8]; 48 hours after starting the dialysis): restored gradually to the same activity as in the uninhibited enzyme; t0.5 of reactivation ([8]; dialysis): more than 20 hours; type of inhibition of T. ni JHE ([8]; dialysis): reversible inhibitors
CCCCCCCCCSCC(=O)C(F)(F)F [Compound 2]	6.3e-06	9.3e-07	> 0.0001	3.7e-09	
CCCCCCCCCCSCC(=O)C(F)(F)F [Compound 3]	1e-05	3.2e-06	8.2e-05	2e-08	
CCCCCCCCCCCSCC(=O)C(F)(F)F [Compound 4]	4.5e-05	2.6e-06	> 0.0001	4.3e-08	
CCCCCCCCCCCCSCC(=O)C(F)(F)F [Compound 5]	9.7e-05	2.2e-06	> 0.0001	1.5e-08	
O=C(CSC1CCCCC1)C(F)(F)F [Compound 6]	7.1e-07	1.8e-06	> 0.0001	5.2e-06	
Cc1ccccc1SCC(=O)C(F)(F)F [Compound 9]	6e-07	3.7e-07	8.5e-05	4.3e-06	
Cc1ccc(SCC(=O)C(F)(F)F)cc1 [Compound 11]	1.6e-06	6.1e-07	> 0.0001	1.1e-07	
CC(C)c1ccccc1SCC(=O)C(F)(F)F [Compound 12]	2.7e-07	4.9e-08	4.7e-05	3.4e-07	
O=C(CSc1ccc(Cl)cc1)C(F)(F)F [Compound 19]					Wilkinson kinetics ([9]; clofibrate hydrolysis): curves expected for a slowly reversible inhibitor; effect on hydrolysis of clofibrate ([9]; low concentrations, Vm 104 nmol/min mg microsomal protein, Km 5.5 mM, ethanol release): significant delay in reacting maximal velocity
O=C(CSc1ccc(Br)cc1)C(F)(F)F [Compound 20]	4.9e-06	2.4e-06	> 1e-05	4.1e-07	
CC(C)=CCC/C(C)=C/CCSCC(=O)C(F)(F)F [Compound 31, (E)-8,12-dimethyl-4-thia-1,1,1-trifluorotrideca-7,11-dien-2-one]	7.2e-07	6.2e-05	> 0.0001	3.2e-09	delay of pupation versus ethanol controls ([5]; listed as DTFT): pupation was delayed with respect to the controls in a dose-dependent manner; maximum percent inhibition obtainable after treatment [7]: as effective; selectivity for JHE in vivo [7]: more selective for JHE in vivo than EPPAT
COC(C)(C)CCC/C(C)=C/CCSCC(=O)C(F)(F)F [Compound 32, (E)-8,12-Dimethyl-12-methoxy-4-Thia-1,1,1-trifluorotridec-7-en-2-one]	1.9e-06			3.1e-09	IC50 [3]: > 0.0001 M; IC50 [4]: > 0.0001 M
